In general, NOAEL refers to the highest tested level that showed no adverse finding.

Data on 21 molecules can be found in patent publication US20080003127A1, “Non-Ferrous Metal Cover Gases” (Honeywell International Inc., priority 2006, published 2008).

Like-named read-outs stand apart in the source and are kept apart here.

The nature of one data set: Boiling point. The class given is physicochemical. The conditions noted are these: for normal boiling point: trans- vs cis-isomer. How it is done: In addition, preferred cover gas compositions of the present invention comprise […] compounds wherein each compound present in more than an insubstantial amount has a boiling point of less than about 25° C., and even more preferably less than about 0° C. Cover gases that have boiling points close to or above room temperature (i.e. which are liquids at room temperature) typically require additional metering equipment to disperse the cover gas material in a controlled fashion onto the surface of the molten metal.

For data set [1] the following is noted: background statement in words; cited from earlier work.
Data set [2] is described as follows: Mg cover gas test: magnesium pieces in quartz tube, oven heated to about 700° C. under cover gas flow, visual inspection. The conditions noted are these: for relative performance as cover gas: at about 0.5% by volume; for performance as cover gas: concentrations at or above about 1.5% by volume. How it is done: A quartz tube having a well was equipped with a metered source of cover gas and a thermocouple which was placed in the well. The well was filled with about 0.2 to 0.3 g of solid magnesium pieces. The cover gas was a mixture of air (a carrier gas) and trans-HFO-1234ze. […]
The tube containing the magnesium was placed in an oven. A flow of cover gas through the tube and over the well containing the magnesium was then established at about 1 liter/minute. The oven was then heated to about 700° C. The flow of cover gas proceeded until a surface film was formed on the magnesium or the magnesium ignited.
After the test was complete, the magnesium was removed from the oven and visually inspected to determine the quality of the cover gas.
The experiments of Examples 1-5 were repeated, except that the cover gas contained […] SF6 or HFC-134a.

Data set [3] in a line: Toxicity, stated in words (no method given). The settings on record: comparison in words, found by applicants.
In data set [4] the test system is test subject (e.g. mice). The experiment in a line: 4-hour LC-50 (concentration in air that kills 50% of test subjects, single exposure). The class given is in vivo. The conditions noted are these: single 4-hour exposure. How it is done: Preferably, fluoroolefins used in the present compositions have low or no toxicity. In this regard, it is preferred that fluoroolefin components that a present in the compositions in more than an insubstantial amount have a LC-50 value of at least about 100,000 ppm, and more preferably at least about 200,000 ppm. As used herein, the term “LC-50 value” means the concentration of the fluoroolefin in air that will kill 50% of test subject (e.g. mice) when administered as a single exposure (e.g. 4 hours). […] For comparison, C2F5C(O)CF(CF3)2 (a fluoroketone cover gas marketed by Minnesota Mining and Manufacturing Co. of St. Paul, Minn., under the tradename Novec™) has a 4-hour LC-50 of about 100,000.

The conditions of data set [5]: cardiac sensitization tests; comparison compound; cited from earlier work.
Data set [6] relates to test subject (e.g. mice). The settings on record: single 4-hour exposure; comparison compound; cited from earlier work.
Setting [7] is: 1.5 Vol. % of F-Source in Air, about 700° C.
Where [8] appears, read: 4.5 Vol. % of F-Source in Air, about 700° C.

In the case of `FC(F)(F)/C=C\Cl` [cis-HFCO-1233zd, cis-1,1,1-trifluoro-3-chloro-propene], in “Boiling point” (Table A), the “Boiling Point (° C.)” value is “+19 °C”.

For the molecule `FB(F)F` [boron trifluoride (BF3), boron trifluoride], the “toxicity (known)” value in data set [1] is on record as “very toxic”.

`O=NF` [nitrosyl fluoride]: the “toxicity (known)” value in data set [1] is listed as “toxic and/or hazardous”.

Regarding `FCC(F)(F)F` [HFC-134a, 1,1,1,2-tetrafluoroethane], the “Quality of Mg Protection” value was “most brown specks, protected in general” in data set [2] (0.10 Vol. % of F-Source in Air, about 700° C.); “white coating with no brown spots” in data set [2] (0.60 Vol. % of F-Source in Air, about 700° C.); “white coating; pieces not stuck together” in data set [2] (setting [7]); “white coating; pieces not stuck together” in data set [2] (setting [8]). Also, the “relative performance as cover gas” value in data set [2] is given as “performing better than SF6”. For the same molecule, the “performance as cover gas” value in data set [2] is “performed well”. Moreover, in the data set “Boiling point” (Table A), the “Boiling Point (° C.)” value is −26 °C.

As for `F/C=C/C(F)(F)F` [trans-HFO-1234ze, trans-1,3,3,3-tetrafluoropropene], the “Quality of Mg Protection” value is “a few brown specks, well protected in general” in data set [2] (0.09 Vol. % of F-Source in Air, about 700° C.); “white with dark spots, no pieces stuck together” in data set [2] (0.26 Vol. % of F-Source in Air, about 700° C.); “white coating with no brown spots” in data set [2] (0.46 Vol. % of F-Source in Air, about 700° C.); “white coating; pieces not stuck together” in data set [2] (setting [7]); “white coating; pieces not stuck together” in data set [2] (setting [8]). The “protection of magnesium (visual inspection)” value in data set [2] (Example 1: about 4.5% by volume in air, about 700° C.) was “well protected”; in data set [2] (Example 2: about 1.5% by volume in air), “well protected”; in data set [2] (Example 3: about 0.5% by volume in air) it was “well protected”; in data set [2] (Example 4: about 0.2% by volume in air), “well protected”; in data set [2] (Example 5: about 0.1% by volume in air) it was “protected in general”. For the same molecule, in data set [2], the “relative performance as cover gas” value is on record as “performing better than HFC-134a”. Also, in data set [2], the “performance as cover gas” value is “performed well”. For the same molecule, the “Boiling Point (° C.)” value in “Boiling point” (Table A) is −18.4 °C. Also, the normal boiling point in “Boiling point” is −18.4 °C. Moreover, the “relative toxicity between isomers” value in data set [3] was “less toxic than the cis-isomer”.

For `FN(F)F` [NF3, nitrogen trifluoride], the “Boiling Point (° C.)” value in the data set “Boiling point” (Table A) was −121 °C. For the same molecule, in data set [1], the “toxicity (known)” value is recorded as “toxic and/or hazardous”.

On to `FC(F)(F)/C=C/Cl` [trans-HFCO-1233zd, trans-1,1,1-trifluoro-3-chloro-propene], for which the “Boiling Point (° C.)” value in the data set “Boiling point” (Table A) is “+19 °C”.

Take `F/C=C(\F)C(F)F` [cis-HFO-1234ye]: in the data set “Boiling point”, the “Boiling Point (° C.)” value was “+2 °C”.

Take `O=S(=O)(F)F` [SO2F2, sulfuryl fluoride]: the “Boiling Point (° C.)” value in the data set “Boiling point” (Table A) was −55 °C. Besides, in data set [1], the “toxicity (known)” value is “toxic and/or hazardous”.

As for `FC(F)(F)C(F)(F)F` [C2F6], the “Boiling Point (° C.)” value in the data set “Boiling point” (Table A) was −78 °C.

On to `C=C(Cl)C(F)(F)F` [HFCO-1233xf, 1,1,1-trifluoro-2-chloro-propene], for which, in “Boiling point” (Table A), the “Boiling Point (° C.)” value is “+12 °C”.

Take `FC=CC(F)(F)F` [cis-HFO-1234ze, 1,1,1,3-tetrafluoropropene]: the normal boiling point in “Boiling point” was found to be 9 °C.

Consider `CC(F)F` [HFC-152a, difluoroethane], for which the “Boiling Point (° C.)” value in the data set “Boiling point” (Table A) was −25 °C.

As to `FC=CC(F)(F)F` [HFO-1234ze, 1,1,1,3-tetrafluoropropene], the “4-hour LC-50” value in the data set with test subject (e.g. mice) [4] is “at least 100,000 ppm”.

Consider `FC(F)=CC(F)(F)F` [HFO-1225zc, CF3CH═CF2], for which the “relative toxicity between isomers” value in data set [3] was “much more toxic”.

Turning to `F/C=C(\F)C(F)(F)F` [cis-HFO-1225ye, cis-1,1,1,2,3-pentafluoropropene], the “relative toxicity between isomers” value in data set [3] is reported as “relatively low degree of toxicity”.

As to `O=C(C(F)(F)C(F)(F)F)C(F)(C(F)(F)F)C(F)(F)F` [C2F5C(O)CF(CF3)2], in data set [5], the no-observed-adverse-effect level (NOAEL) was 10 vol. %. Also, in the data set “Boiling point” (Table A), the “Boiling Point (° C.)” value was found to be 49 °C. Also, the “4-hour LC-50” value in the data set on test subject (e.g. mice) [6] is recorded as “about 100,000 ppm”.

For methoxy-nonafluorobutane [HFE-7100], the “Boiling Point (° C.)” value in the data set “Boiling point” (Table A) was 61 °C.

In the case of `C=C(F)C(F)(F)F` [HFO-1234yf, 1,1,1,2-tetrafluoropropene], in the data set “Boiling point” (Table A), the “Boiling Point (° C.)” value is −30 °C. Also, the “4-hour LC-50” value in the data set on test subject (e.g. mice) [4] is “at least 200,000 ppm”.

For `O=C=O` [CO2, carbon dioxide], the “Boiling Point (° C.)” value in “Boiling point” is −78 °C.

For the molecule `FS(F)(F)(F)(F)F` [SF6, sulfurhexafluoride], the “Quality of Mg Protection” value is on record as “failure; Mg ignited” in data set [2] (0.11 Vol. % of F-Source in Air, about 700° C.); “several brownish regions, very little luster,” in data set [2] (0.20 Vol. % of F-Source in Air, about 700° C.); “coating less white; brownish regions;” in data set [2] (0.43 Vol. % of F-Source in Air, about 700° C.); “white coating; pieces not stuck together” in data set [2] (setting [7]); “white coating; pieces not stuck together” in data set [2] (setting [8]). Besides, the “performance as cover gas” value in data set [2] is on record as “performed well”. The “Boiling Point (° C.)” value in “Boiling point” (Table A) is −82 °C. Moreover, in data set [1], the “toxicity (known)” value is “non-toxic”.
